Measured values as given in the METLIN SMRT retention time set (Domingo-Almenara et al. 2019).

Assay: gradient 5% acetonitrile 3 min, to 50% in 2 min, to 85% in 15 min, held 3 min, 100 µL/min
Settings: column: Zorbax Extend-C18 2.1 x 50 mm; eluents: water / acetonitrile, 0.1% formic acid
How it was run: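 Over 3 months, pure standards in mixtures of ~100 molecules were run by HPLC coupled to a quadrupole time-of-flight mass spectrometer in positive and negative ionization mode. The column was a Zorbax Extend-C18 (2.1 × 50 mm, 1.8 μm) at 100 μL/min, eluted with water and acetonitrile each holding 0.1% formic acid, with 40 μL dead and 900 μL dwell volumes. Retention time was determined from adduct peaks chosen by software and checked manually.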

RP-LC retention time	Compound
731 s	O=C(NCc1ccccc1)N1CCCC1c1nc(-c2ccccc2)n[nH]1 (stereo not given)
1120 s	CN(Cc1ccccc1)C(=O)Cn1c(=O)c2cnc(-c3ccc(Cl)cc3)nc2n(C)c1=O
697 s	CCOc1ccccc1NC(=O)C(=O)NCc1cc(C)oc1C
756 s	Cc1noc(COC2CCCN(C(=O)NCCc3ccccc3)C2)n1 (stereo not given)
1120 s	COCCCn1c(=O)c2ccccc2n(Cc2nc(-c3ccc(OC(C)C)cc3)no2)c1=O
685 s	Cn1c(C2CCN(C(=O)Nc3cccc(Cl)c3F)CC2)cc(=O)n2nccc12
700 s	CCn1cnc(S(=O)(=O)N2CCC(C(=O)NCc3ccc(F)cc3)CC2)c1
746 s	CN1CCCc2cc(C(CNC(=O)C(=O)NCc3ccccc3)N3CCCCC3)ccc21 (stereo not given)
601 s	CN1CCN(c2ccc(NC(=O)C(C)(C)C)c(C(=O)O)c2)CC1
759 s	O=C(CCSc1ccccc1)NCCn1cnc(-c2ccc(F)cc2)cc1=O
728 s	CCOc1ccc(C(c2c(O)cc(C)n(CCOC)c2=O)N2CCN(c3ccccn3)CC2)cc1 (stereo not given)
849 s	COc1cccc(-c2noc(C3CCCN3C(=O)Nc3cc(OC)ccc3OC)n2)c1 (stereo not given)
723 s	CCOC(=O)CNC(=O)N1CCc2cc(-c3ccc(C(=O)N4CCOCC4)cc3)ccc21
1180 s	Cc1ccc(-c2noc(Cn3c(=O)n(Cc4ccc5c(c4)OCO5)c(=O)c4sccc43)n2)cc1C
720 s	CCC(=O)N1c2ccc(S(=O)(=O)N3CCCCC3)cc2CC1C(=O)NCCc1ccccc1 (stereo not given)
591 s	O=C(Cc1cccs1)N1CCCn2nc(-c3ccncc3)cc2C1
736 s	COc1cccc(CNC(=O)C2CCCN(c3ncnc4c3nc3n4CCCCC3)C2)c1 (stereo not given)
772 s	CCc1ccc(S(=O)(=O)N2CCC(n3cnnc3C3CC3)CC2)cc1
1190 s	Cc1ccc(-c2nnc(Cc3nc(-c4ccc(Cl)cc4)no3)o2)cc1F
757 s	CCN1c2cc(Cl)ccc2C(=O)NC12CCN(C(=O)NCc1ccccc1)CC2
814 s	Cc1nnc2c(=O)n(CC(=O)N3CCC(Cc4ccccc4)CC3)c3cccnc3n12
736 s	COc1cccc(CNC(=O)N2CCC(CC(=O)NCc3ccccc3)CC2)c1
704 s	CCNC(=O)Nc1ccc2c(c1)CN(S(=O)(=O)c1cnn(CC)c1)CCO2

RP-LC retention time	Compound
770 s	COCCCNC(=O)C1c2ccccc2C(=O)N1Cc1ccc(Cl)cc1 (stereo not given)
726 s	O=C1CCCCC(C(=O)N2CCc3ccccc32)N1 (stereo not given)
678 s	COc1cccc(CNC2=NCCNC23CCN(S(=O)(=O)c2ccccc2)CC3)c1
713 s	CC1CCN(C(=O)CN(C)S(=O)(=O)c2ccc3c(c2)CCCC(=O)N3)CC1
699 s	O=C(Nc1ccc(-c2nnc3n2CCCC3)cc1)C1CCCCC1
918 s	Cc1ccc(N2CCC(NC(=O)c3ccc(F)c(F)c3)C2=O)cc1C (stereo not given)
756 s	CCN1C(=O)c2c(C(=O)NCCc3ccccc3)ncn2CC1(C)C(=O)NC1CCCC1 (stereo not given)
998 s	Cc1cccc(CNC(=O)CN2C(=O)CCc3cc(S(=O)(=O)N4CCCCC4C)ccc32)c1 (stereo not given)
703 s	CCc1ccc(OCC(=O)N2CCCCC2CCN2CCCCC2)cc1 (stereo not given)
809 s	Cc1noc(C)c1C1CCCN1C(=O)Cc1ccc(Cl)cc1 (stereo not given)
700 s	O=C(CSc1ncccn1)NCc1cc(-c2ccc(F)cc2)on1
821 s	CCn1ncc(NC(=O)COc2ccc(F)cc2)c(N2CCOCC2)c1=O
687 s	CC(C)(NC(=O)c1cccs1)C(=O)N1CCN(c2ccccc2)CC1
641 s	COc1ccccc1N1CCN(C(=O)C2CCN(c3nc(NC(C)=O)ns3)CC2)CC1
800 s	Cc1ccc(NC(=O)C2CCCN2S(=O)(=O)c2cc3c(cc2Cl)NC(=O)CO3)cc1 (stereo not given)
878 s	CCc1ccc(NC(=O)N2CCCC(C)(C(=O)NCc3ccccc3)C2)cc1 (stereo not given)
717 s	CCC(=O)Nc1ccc(-n2cnc(C(=O)N3CCN(c4cccc(OC)c4)CC3)c2)nc1
642 s	c1ccc(-c2nc(-c3ccncc3)no2)c(OC2CCN(CC3CC3)C2)c1 (stereo not given)
559 s	CCc1nnc2nc(N3CCN(C(=O)c4nccc5ccccc45)CC3)cc(C)n12
907 s	Cc1cc(C)n(-c2nc(C)c(C)c(=O)n2CC(=O)N2CCCc3ccccc32)n1
937 s	Cc1ccc(S(=O)(=O)N2CCCN(c3ccc(=O)n(-c4ccc(F)cc4)n3)CC2)cc1C
821 s	COc1ccc(N2CCN(c3nc(C(=O)NCC4CCCO4)cs3)CC2)cc1 (stereo not given)
965 s	Cc1nc2cc(-c3noc(-c4ccc(C#N)cc4)n3)ccc2n(C)c1=O

Continued, molecule first:

Compound	RP-LC retention time
O=C(Nc1cc(-c2cccnc2)no1)c1ccc2c(c1)OCO2	710 s
Cc1ccc(-c2ncc(C(=O)Nc3ccccc3Br)c(-c3ccncc3)n2)cc1	994 s
CCCCNc1c(C(=O)OC)c(=O)[nH]c2ccc(F)cc12	734 s
CSc1ccc(-c2nc3nc(C)cc(C)n3c2Nc2ccc(C)cc2)cc1	810 s
O=C(CN1CC=C(c2cnn(-c3ccccc3)c2)CC1)Nc1ccc2c(c1)OCCO2	675 s
COc1ccc(CC(=O)Nc2nnc(-c3ccsc3)o2)cc1OC	655 s
COCCc1noc(C2Cc3ccccc3N2C(=O)Nc2cc(C)cc(C)c2)n1 (stereo not given)	968 s
COc1ccc(C2=NC3(CCN(C(C)C)CC3)NC(c3cccc(OC)c3O)C2)cc1OC (stereo not given)	575 s
Cc1ccn2c(NC(=O)c3cccc(Cl)c3)c(-c3ccccc3)nc2c1	682 s
COc1ccc(OCc2nc(-c3ccc4ncn(C(C)C)c4c3)no2)cc1	727 s
Cc1nnc(NC(=O)CSc2nnc(-c3ccc(Cl)cc3)o2)s1	772 s
O=C1NCCN2CC3(CCN(C(=O)Nc4ccccc4F)CC3)CC12 (stereo not given)	564 s
COc1cc(OC)c(NC(=O)Cn2nc3n(c2=O)CCCCC3)cc1Cl	722 s
CC(C)(C)n1nnnc1C1CC2(CCOCC2)C(=O)N1CCc1nc2ccccc2[nH]1 (stereo not given)	604 s
Cc1cc(N(C)C)n2nc(CN3CCN(c4cccc(C)c4C)CC3)nc2n1	655 s
Nc1nc(N)c(-c2cccc(C(F)(F)F)c2)c(Cc2cccc(C(F)(F)F)c2)n1	741 s
Cn1nccc1C(=O)NCc1ccc(-c2nc(-c3ccccc3)no2)s1	932 s
O=C(C1CCCC1)N1CCC(c2noc(-c3ccncc3)n2)C1 (stereo not given)	863 s
Cc1ccccc1-c1nnc(CSc2nnc(NC(=O)c3ccc(Br)o3)s2)o1	919 s
COc1cc(N2CCN(S(=O)(=O)c3cccc(C(F)(F)F)c3)CC2)nc(OC)n1	947 s
COc1ccc(Cl)cc1S(=O)(=O)N1CCCC(C(N)=O)C1 (stereo not given)	689 s
Cc1ccc(-c2nc(-c3ccc4nnn(C)c4c3)no2)c(C)c1	1170 s

Compound	RP-LC retention time
COc1cccc(-c2noc(Cc3nnc(-c4cccc(C)c4)o3)n2)c1OC	961 s
Cn1nc(-c2nc(C3CC3)no2)c2c1CCN(S(=O)(=O)c1cccc(F)c1)C2	920 s
Clc1nnc(NC2CCCCC2)c(Cl)c1Cl	1200 s
CCOC(=O)C(C)Sc1ccc(NC(=O)c2ccco2)nn1 (stereo not given)	759 s
CCCN(C)c1nccn2c(=O)n(CC(=O)Nc3cccc(Br)c3)nc12	730 s
O=C(Nc1ccc(F)c(F)c1)c1cccn1Cc1noc(C2CC2)n1	966 s
CC1CCC(NC(=O)C2CCN(S(=O)(=O)c3ccc4c(c3)sc(=O)n4C(C)C)CC2)CC1 (stereo not given)	1020 s
COc1ccccc1-c1cc2c(=O)n(Cc3nc(-c4cccc(F)c4)no3)ccn2n1	1040 s
O=S(=O)(NCc1cccnc1-c1ccc(F)cc1)c1ccc(Br)cc1	801 s
CC(C)C[C@H](NC(=O)Cn1cnc2ccccc2c1=O)C(=O)O	649 s
O=C(NCCOc1cccc2cccnc12)c1cccc(-n2cnnn2)c1	574 s
Cn1nccc1-c1cccc(-c2noc(Cc3ccc(Br)cc3)n2)c1	1150 s
CC(C)Cc1cc(-c2nn3c(Cc4ccccc4)nnc3s2)n[nH]1	910 s
O=C(NCCc1ccco1)c1c(-c2ccccc2)nnc2ccccc12	784 s
CCn1c(=O)sc2cc(S(=O)(=O)N3CCC(C(=O)N(C)C4CCCCC4)CC3)ccc21	958 s
CN(Cc1ccco1)C(=O)Cn1cccc1-c1nnc(-c2ccccc2)o1	919 s
CCN1CCn2cc(S(=O)(=O)Nc3cc(F)ccc3C)cc2C1=O	725 s
Cc1ccc(NC(=O)CN2C(=O)CSC(C)C2=O)cc1Cl (stereo not given)	819 s
CCn1c(=O)c(=O)n(CC(=O)NCc2ccco2)c2cccnc21	652 s
CCCc1noc(-c2nc(-c3ccccc3F)no2)n1	1090 s
N#CC1=CN(c2cccc(Br)c2)c2ccccc2S1(=O)=O	939 s
COCCNC(=O)CCc1cc2cc(C)ccc2[nH]c1=O	637 s
